According to publication PMC7662639, “Synthesis and Evaluation of PEG-PR for Water Flux Correction in an In Situ Rat Perfusion Model” (Molecules, 2020):
Read-outs that look alike come from different tables or passages of the source. Values belong to the molecule of their own block, whether it stands above or below them.

Columns and labels:
[1] = Stability of markers and model drugs in Krebs–Ringer buffer (shaker bath, 37 °C, 120 min); type: physicochemical; details: for Ending (120 min) Conc. / Initial Conc.: 37 °C shaker bath, mean ± SD, n = 3; for Initial Conc.: start of experiment; for Percentage of concentration change: (Initial Conc. - Ending Conc.) / Initial Conc., 37 °C; for Ending (120 min) Conc. / Percentage of concentration change: 120 min
Protocol: At the beginning and end (120 min) of the experiment, perfusion solution samples (0.4 mL) were acquired and centrifuged at 12,000 rpm for 10 min to determine the concentration changes of all compounds by HPLC analysis.
Table S1. Concentration changes of all compounds before and after the shaker bath
experiment. Data are shown as mean ± SD, n = 3.
Initial Ending Percentage of
Compound (120 min) concentration
As/Ai Conc. (μM) As/Ai Conc. (μM) change
As: HPLC peak area of compound .
Ai: HPLC peak area of internal standard .
Percentage of concentration change: (Initial Conc. -Ending Conc.) / Initial Conc.
Figure S7. Calibration line of PR (MW = 354) in Krebs–Ringer buffer.
(1 picture or pasted object on this page, not shown here)

[2] = Recirculation intestinal perfusion method, Peff of model drugs with water flux corrected by marker; type: in vivo, rat
Protocol: A male rat weighing about 200 g was anesthetized and then fixed on a plate heated by a lamp at 37 °C. Through careful operation, two glass tubs were tightly secured on both ends of the intestinal segment using silk sutures. The Krebs–Ringer buffer was injected into the gut from the head end of the intestinal segment with a syringe until the outflow was clear. The intestine was then covered with cotton gauze wetted with 37 °C Krebs–Ringer buffer to maintain intestinal integrity and activity. The peristaltic pump and donor chamber (syringe) were connected with two catheters ligated onto the two abovementioned glass tubs. The intestinal segments were placed carefully back into the rat abdomen to avoid interference with blood circulation. […] After stabilizing the whole system for 10 min with the perfusion solution (peristaltic pump, flow: 5 mL/min), the initial sample (0.4 mL, C’0) was collected from the donor chamber, and the equal perfusion solution with the model drug (100 μM, C0) was added into the donor chamber. Samples (0.4 mL, C’t and Ce) were then collected every 10 min for 60 min. Finally, the length of the perfused intestinal segment was precisely measured at the end of the experiment.
Internal standard solution (cresol red, 600 μg/mL) was added into the 300-μL sample solution and vortexed for 30 s. Then, 600 μL of […] was added, and the samples were vortexed for 2 min. After homogeneous mixing, the mixture was centrifuged at 10,000 rpm for 10 min. Finally, the 20-μL treated supernatant was subjected to detection by HPLC.
Thus, it was necessary to correct the volume of the perfusion solution during the experiment. In this work, the volumes of the perfused solutions (Vt) were calculated from the experimental concentrations of the markers (C’t) as (4) V0=C^′V^′/C0′ (5) Vt=(V0−0.4)Ct−1′+0.4C^′/Ct′ (t=1,2,3…).
The corrected drug concentration (Ct) was calculated as (6) Ct=CeVt/V0 where Ct represents the concentration of the compound corrected by the marker at time t, and Ce represents the experimental drug concentration value.
The apparent absorption rate coefficients (ka) were obtained by the equation of luminal corrected concentration versus time:(7) Ct=C0×e^−ka·t.
The Peff value was obtained from ka using the following equation, where R is the effective radius of the intestinal segment:(8) Peff=Ka·R/2.

[3] = parameters: method as in ref 39 (Ruiz-Picazo et al. 2017); details: Doluisio method, ref 39 (Ruiz-Picazo et al. 2017), cited from earlier work
[4] = Everted gut sac (EGS) permeability; type: in vitro ADME, rat
Protocol: Briefly, the male Wistar rats were fasted for 1 day with access to only double-distilled water and then anesthetized with ether. Then, the duodenum, jejunum, ileum, and colon (10–15 cm) were cut out and preserved in cold Krebs–Ringer buffer. After the intestinal residue was removed, the intestinal segments were everted by a glass rod and ligated onto the appropriate glass tube. […] Then, 0.4 mL of receiver fluid was collected from the everted intestinal segments, and an equal blank Krebs–Ringer buffer was replenished every 15 min during the experiment.
An internal standard (cresol red 100 μg/mL) was added to every 300-μL intestinal fluid sample. The mixture was vortexed for 30 s and dried under nitrogen blowing at 40 °C. The residue was redissolved in 150-μL methanol and vortexed for 30 s. The supernatant was then subjected to detection by HPLC after centrifuging at 10,000 rpm for 10 min.

[5] = Water flux (Jwater) corrected by marker in the recirculation perfusion model; type: in vivo, rat; details: 60–120 min, marker 56 μM, mean ± SD, n = 6
Protocol: The effective intestinal membrane permeability (Peff) of each model drug was surveyed using the recirculation intestinal perfusion method, as previously mentioned. A male rat weighing about 200 g was anesthetized and then fixed on a plate heated by a lamp at 37 °C. Through careful operation, two glass tubs were tightly secured on both ends of the intestinal segment using silk sutures. The Krebs–Ringer buffer was injected into the gut from the head end of the intestinal segment with a syringe until the outflow was clear. The intestine was then covered with cotton gauze wetted with 37 °C Krebs–Ringer buffer to maintain intestinal integrity and activity. The peristaltic pump and donor chamber (syringe) were connected with two catheters ligated onto the two abovementioned glass tubs. […] Finally, the length of the perfused intestinal segment was precisely measured at the end of the experiment.
As previously mentioned, the water flux through the membrane due to water absorption and secretion was of such significance that it could have influence on the accuracy of the experimental results. […] In this work, the volumes of the perfused solutions (Vt) were calculated from the experimental concentrations of the markers (C’t) as (4) V0=C^′V^′/C0′ (5) Vt=(V0−0.4)Ct−1′+0.4C^′/Ct′ (t=1,2,3…).
Jwater corrected by the marker was calculated using the following equation:(9) Jwater=d(V0−Vt)/dt (t=1,2,3…).

[6] = parameters: method as in ref 22 (Sutton et al. 2001); details: SPIP; ref 22 (Sutton et al. 2001); cited from earlier work
[7] = parameters: method as in ref 21 (Tugcu-Demiroz et al. 2014); details: Doluisio technique; ref 21 (Tugcu-Demiroz et al. 2014); cited from earlier work
[8] = after 8 h, rat perfusion experiments; cited from earlier work
[9] = rat complete small intestine, water flux corrected by PEG4k-PR, mean ± SD, n = 3
[10] = rat complete small intestine, water flux corrected by PEG5k-PR, mean ± SD, n = 3
[11] = rat complete small intestine, water flux corrected by PR, mean ± SD, n = 3

Ending (120 min) Conc. [1]: 102.12 ± 0.58 µM | Initial Conc. [1]: 103.62 ± 2.29 µM | Percentage of concentration change [1]: 1.46% | Peff ([2]; colon, corrected by PEG5k-PR): 0.000102 cm/s | Peff ([2]; ileum, corrected by PEG5k-PR): 9.4e-05 cm/s | Peff ([2]; jejunum, corrected by PEG5k-PR): 0.000107 cm/s | Peff [2, 9]: 5.06 ± 0.57 ×10^−5 cm/s | Peff [2, 10]: 5.29 ± 1.49 ×10^−5 cm/s | Peff [2, 11]: 5.11 ± 0.85 ×10^−5 cm/s
Molecule: COCCc1ccc(OCC(O)CNC(C)C)cc1 (stereo not drawn) [Metoprolol]

Ending (120 min) Conc. [1]: 105.93 ± 0.61 µM | Initial Conc. [1]: 105.19 ± 0.96 µM | Percentage of concentration change [1]: 0.75% | Peff ([2]; colon, corrected by PEG5k-PR): 3.3e-05 cm/s | Peff ([2]; ileum, corrected by PEG5k-PR): 2.3e-05 cm/s | Peff ([2]; jejunum, corrected by PEG5k-PR): 2.6e-05 cm/s | Peff [2, 9]: 1.06 ± 0.24 ×10^−5 cm/s | Peff [2, 10]: 1.38 ± 0.34 ×10^−5 cm/s | Peff [2, 11]: 0.49 ± 0.10 ×10^−5 cm/s
Molecule: CC(C)NCC(O)COc1ccc(CC(N)=O)cc1 (stereo not drawn) [Atenolol]
Peff ([3]; colon): 21.1 ×10⁻⁶ cm/s | Peff ([3]; ileum): 16.3 ×10⁻⁶ cm/s | Peff ([3]; jejunum): 22.7 ×10⁻⁶ cm/s

Molecule: Phenol red [PR]
Ending (120 min) Conc. [1]: 56.11 ± 1.57 µM | Initial Conc. [1]: 56.90 ± 1.10 µM | Percentage of concentration change [1]: 1.38% | cumulative permeable percentage ([4]; 56 μM, all intestinal segments): 3–5% | cumulative permeable percentage at 112 μM relative to 28 μM ([4]; colon): twice as large | Papp ([4]; colon, 28 μM): 4.07 ± 1.33 ×10^−6 cm/s | W (cumulative permeable percentage) ([4]; colon, 28 μM): 2.50 ± 0.82% | Papp ([4]; colon, 56 μM): 5.83 ± 1.9 ×10^−6 cm/s | W (cumulative permeable percentage) ([4]; colon, 56 μM): 3.36 ± 0.79% | Papp ([4]; colon, 112 μM): 8.57 ± 3.54 ×10^−6 cm/s | W (cumulative permeable percentage) ([4]; colon, 112 μM): 5.18 ± 1.22% | Papp ([4]; ileum, 28 μM): 6.17 ± 2.17 ×10^−6 cm/s | W (cumulative permeable percentage) ([4]; ileum, 28 μM): 3.55 ± 1.50% | Papp ([4]; ileum, 56 μM): 6.77 ± 2.32 ×10^−6 cm/s | W (cumulative permeable percentage) ([4]; ileum, 56 μM): 4.23 ± 1.38% | Papp ([4]; ileum, 112 μM): 8.90 ± 1.65 ×10^−6 cm/s | W (cumulative permeable percentage) ([4]; ileum, 112 μM): 5.27 ± 2.31% | Papp ([4]; jejunum, 28 μM): 7.68 ± 2.04 ×10^−6 cm/s | W (cumulative permeable percentage) ([4]; jejunum, 28 μM): 4.44 ± 1.98% | Papp ([4]; jejunum, 56 μM): 8.36 ± 3.11 ×10^−6 cm/s | W (cumulative permeable percentage) ([4]; jejunum, 56 μM): 4.92 ± 1.12% | Papp ([4]; jejunum, 112 μM): 10.42 ± 2.58 ×10^−6 cm/s | W (cumulative permeable percentage) ([4]; jejunum, 112 μM): 5.77 ± 1.70% | Jwater (water flux) corrected by the marker [5]: 88.7 ± 37.9 µL/cm/h | average corrected water flux [6]: 26.8 ± 49.2 µL/cm/h | water flux [7]: 55 µL/cm/h | urinary recovery [8]: about 4%
